In patent US20100331315A1, “RHODANINES AND RELATED HETEROCYCLES AS KINASE INHIBITORS” (priority 2009, published 2010):
Read-outs that look alike come from different tables or passages of the source.

Legend:
K-562 = experiment: Alamar Blue cell proliferation assay, K-562; type: cell-based; details: Homo sapiens
Protocol: (§1) A representative cell-proliferation assay protocol using Alamar Blue dye (stored at 4° C., use 20 ul per well) is described hereafter.
(§2) a. Split and trypsinize cells.
(§3) b. Count cells using hemocytometer.
(§4) c. Plate 4,000-5,000 cells per well in 100 μl of medium and seed into a 96-well plate according to the following plate layout. Add cell culture medium only to wells B10 to B12. Wells B1 to B9 have cells but no compound added.
(§5) d. Add 100 μl of 2× drug dilution to each well in a concentration shown in the plate layout above. At the same time, add 100 μl of media into the control wells (wells B10 to B12). Total volume is 200 μl/well.
(§6) e. Incubate four (4) days at 37° C., 5% CO2 in a humidified incubator.
(§7) f. Add 20 μl Alamar Blue reagent to each well.
(§8) g. Incubate for four (4) hours at 37° C., 5% CO2 in a humidified incubator.
(§9) h. Record fluorescence at an excitation wavelength of 544 nm and emission wavelength of 590 nm using a microplate reader.
(§10) In the assays, cells are cultured with a test compound for approximately four days, the dye is then added to the cells and fluorescence of […] dye is detected after approximately four hours. Different types of cells can be utilized in the assays (e.g., HCT-116 human colorectal carcinoma cells, PC-3 human prostatic cancer cells and MiaPaca human pancreatic carcinoma cells).

MV-4-11 = experiment: Alamar Blue cell proliferation assay, MV-4-11; type: cell-based; details: Homo sapiens
Protocol: as §1, §2, §3, §4, §5, §6, §7, §8, §9, §10

[1] = system: PC-3 human prostatic cancer cells; experiment: Alamar Blue cell proliferation assay, PC3; type: cell-based
Protocol: as §1, §2, §3, §4, §5, §6, §7, §8, §9, §10

recombinant PIM-1 = recombinant PIM-1 (Homo sapiens, UniProt P11309); experiment: PIM-1 assay (33P-ATP filter plate); type: biochemical; details: read-out: PIM1: IC50
Protocol: The following procedure was used to assay the PIM-1 kinase activity of compounds of the invention. Other methods for assaying PIM-1 and other PIM kinases, as well as methods to assay for activity against the various kinases are known in the art.
In a final reaction volume of 50 ul, recombinant PIM-1 (1 ng) was incubated with 12 mM MOPS pH 7.0, 0.4 mM EDTA, glycerol 1%, brij 35 0.002%, 2-mercaptoethanol 0.02%, BSA 0.2 mg/ml, 100 uM KKRNRTLTK, 10 mM MgAcetate, 15 uM ATP, [γ-^33P-ATP] (specific activity approx. 500 cpm/pmol), DMSO 4% and test inhibitor compound at the required concentration. The reaction was initiated by the addition of the Magnesium ATP mixture. After 40 min incubation at 23° C., the reactions were quenched by the addition of 100 ul 0.75% Phosphoric acid, and the labeled peptide collected by filtration through a phosphocellulose filter plate. The plate was washed 4 times with 0.075% phosphoric acid (100 ul per well) and then, after the addition of scintillation fluid (20 ul per well), the counts were measured by a scintillation counter.

[2] = system: MiaPaca human pancreatic carcinoma cells; experiment: Alamar Blue cell proliferation assay, MiaPaCa; type: cell-based
Protocol: as §1, §2, §3, §4, §5, §6, §7, §8, §9, §10

MDAMB231 = experiment: Alamar Blue cell proliferation assay, MDAMB231; type: cell-based; details: Homo sapiens
Protocol: as §1, §2, §3, §4, §5, §6, §7, §8, §9, §10

recombinant human CK2 = biological target: T1, recombinant human CK2 (Homo sapiens, UniProt P68400); experiment: CK2 assay (cell-free, 33P-ATP filter plate); type: biochemical
T1 construct: purchased Upstate
Protocol: Modulatory activity of compounds described herein was assessed in vitro in cell-free CK2 assays by the following method.
Test compounds in aqueous solution were added at a volume of 10 microliters, to a reaction mixture comprising 10 microliters Assay Dilution Buffer (ADB; 20 mM MOPS, pH 7.2, 25 mM beta-glycerolphosphate, 5 mM EGTA, 1 mM sodium orthovanadate and 1 mM dithiothreitol), 10 microliters of substrate peptide (RRRDDDSDDD, dissolved in ADB at a concentration of 1 mM), 10 microliters of recombinant human CK2 (25 ng dissolved in ADB; Upstate). Reactions were initiated by the addition of 10 microliters of ATP Solution (90% 75 mM MgCl2, 75 micromolar ATP dissolved in ADB; 10% [γ-^33P]ATP (stock 1 mCi/100 μl; 3000 Ci/mmol (Perkin Elmer) and maintained for 10 minutes at 30 degrees C. The reactions were quenched with 100 microliters of 0.75% phosphoric acid, then transferred to and filtered through a phosphocellulose filter plate (Millipore). After washing each well 5 times with 0.75% phosphoric acid, the plate was dried under vacuum for 5 min and, following the addition of 15 ul of scintillation fluid to each well, the residual radioactivity was measured using a Wallac luminescence counter.

[3] = K562, K-562, Table 1, read-out: AB: K-562 IC50
[4] = MV4-11, MV-4-11, Table 1, read-out: AB: MV-4-11 IC50
[5] = PC-3, PC3, Table 1, read-out: AB: PC3
[6] = MIA PaCa-2, Table 1, read-out: AB: MiaPaCa IC50
[7] = MDA-MB-231, MDAMB231, Table 1, read-out: AB: MDAMB231 IC50

Chain of recombinant PIM-1 (P11309 whole entry): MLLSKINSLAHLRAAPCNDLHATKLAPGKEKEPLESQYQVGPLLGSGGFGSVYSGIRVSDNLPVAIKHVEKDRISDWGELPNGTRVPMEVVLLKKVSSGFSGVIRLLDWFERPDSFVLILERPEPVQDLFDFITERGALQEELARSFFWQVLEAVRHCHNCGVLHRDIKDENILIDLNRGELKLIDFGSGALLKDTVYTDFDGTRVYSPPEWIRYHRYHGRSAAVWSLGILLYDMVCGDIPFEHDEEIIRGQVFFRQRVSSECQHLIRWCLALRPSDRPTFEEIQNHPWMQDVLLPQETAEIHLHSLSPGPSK
T1 sequence (P68400 whole entry): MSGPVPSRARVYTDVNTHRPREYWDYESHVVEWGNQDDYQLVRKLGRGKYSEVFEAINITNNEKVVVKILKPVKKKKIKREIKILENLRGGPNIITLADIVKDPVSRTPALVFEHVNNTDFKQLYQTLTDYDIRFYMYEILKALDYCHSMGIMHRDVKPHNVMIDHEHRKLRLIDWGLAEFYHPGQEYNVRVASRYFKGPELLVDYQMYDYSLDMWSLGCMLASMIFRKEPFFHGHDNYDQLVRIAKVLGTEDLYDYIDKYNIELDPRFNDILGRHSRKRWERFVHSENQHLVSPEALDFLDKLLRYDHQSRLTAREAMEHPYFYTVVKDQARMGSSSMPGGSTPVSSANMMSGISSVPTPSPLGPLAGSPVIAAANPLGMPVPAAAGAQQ
T1 sequence (P67870 whole entry partner): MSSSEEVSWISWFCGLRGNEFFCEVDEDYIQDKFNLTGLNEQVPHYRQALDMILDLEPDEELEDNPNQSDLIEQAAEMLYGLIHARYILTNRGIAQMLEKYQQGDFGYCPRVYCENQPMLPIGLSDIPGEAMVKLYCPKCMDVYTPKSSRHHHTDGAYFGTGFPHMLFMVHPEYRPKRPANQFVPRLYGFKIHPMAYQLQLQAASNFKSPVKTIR

Question: What does the source list for `CN1CCCN(C(=O)c2cccc(-c3ccc(/C=C4/SC(=O)NC4=O)o3)c2)CC1`?
Answer: IC50 (K-562; K562, K-562, Table 2, read-out: AB: K-562 IC50): > 10 µM; IC50 (MV-4-11; MV4-11, MV-4-11, Table 2, read-out: AB: MV-4-11 IC50): > 1 µM; IC50 ([1]; PC3, Table 2, read-out: AB: PC3 IC50): > 30 µM; IC50 (recombinant PIM-1; Table 2): 0.111 µM; IC50 ([2]; MIA PaCa-2, Table 2, read-out: AB: MiaPaCa IC50): > 10 µM; IC50 (MDAMB231; MDA-MB-231, MDAMB231, Table 2, read-out: AB: MDAMB231 IC50): > 10 µM; IC50 (recombinant human CK2; Table 2): 0.011 µM

Question: Which IC50 (K-562; [3]) does the source give for `O=C1NC(=S)S/C1=C\c1ccc(-c2cccc(C(=O)N3CC[C@@H](F)C3)c2)o1` here?
Answer: > 10 µM

Question: And the IC50 (MV-4-11; [4])?
Answer: > 10 µM

Question: And the IC50 [1, 5]?
Answer: > 30 µM

Question: And the IC50 (recombinant PIM-1; Table 1)?
Answer: 0.04 µM

Question: What about the IC50 [2, 6] of the same compound?
Answer: > 10 µM

Question: What about the IC50 (MDAMB231; [7]) of the same compound?
Answer: > 10 µM

Question: And the IC50 (recombinant human CK2; Table 1)?
Answer: 0.026 µM

Question: `CCNC(=O)c1cccc(-c2ccc(/C=C3\SC(=S)NC3=O)o2)c1` was tested. Which IC50 (K-562; [3]) did it give?
Answer: > 10 µM

Question: And the IC50 (MV-4-11; [4])?
Answer: > 10 µM

Question: And the IC50 [1, 5]?
Answer: > 30 µM

Question: And the IC50 (recombinant PIM-1; Table 1)?
Answer: 0.028 µM

Question: And the IC50 [2, 6]?
Answer: > 10 µM

Question: What about the IC50 (MDAMB231; [7]) of the same compound?
Answer: > 10 µM

Question: And the IC50 (recombinant human CK2; Table 1)?
Answer: 0.264 µM

Question: With `CN1CCCN(C(=O)c2cccc(-c3ccc(/C=C4\C(=O)NC(=O)N4C)o3)c2)CC1` as the compound, how does the IC50 (recombinant PIM-1; Table 3) read?
Answer: > 5 µM

Question: What about the IC50 (recombinant human CK2; Table 3) of the same compound?
Answer: 1.82 µM

Question: What does the source list for `CN1CCC(N(C)C(=O)c2ccc(-c3ccc(/C=C4\SC(=S)NC4=O)o3)cc2)C1` (stereo not drawn)?
Answer: IC50 (K-562; [3]): > 10 µM; IC50 (MV-4-11; [4]): > 10 µM; IC50 [1, 5]: > 30 µM; IC50 (recombinant PIM-1; Table 1): 0.037 µM; IC50 [2, 6]: > 10 µM; IC50 (MDAMB231; [7]): > 10 µM

Question: `O=C1NC(=S)S/C1=C\c1ccc(-c2cc(C(=O)O)ccc2Cl)o1` was tested. Which IC50 (K-562; [3]) did it give?
Answer: > 10 µM

Question: What about the IC50 (MV-4-11; [4]) of the same compound?
Answer: > 10 µM

Question: And the IC50 [1, 5]?
Answer: > 30 µM

Question: What about the IC50 (recombinant PIM-1; Table 1) of the same compound?
Answer: 0.199 µM

Question: What about the IC50 [2, 6] of the same compound?
Answer: > 10 µM

Question: What about the IC50 (MDAMB231; [7]) of the same compound?
Answer: > 10 µM

Question: What about the IC50 (recombinant human CK2; Table 1) of the same compound?
Answer: 0.027 µM

Question: Which results are given for `O=C1NC(=S)S/C1=C\c1ccc(-c2cccc(C(=O)N3CC[C@H](F)C3)c2)o1`?
Answer: IC50 (K-562; [3]): > 10 µM; IC50 (MV-4-11; [4]): 9.5 µM; IC50 [1, 5]: > 30 µM; IC50 (recombinant PIM-1; Table 1): 0.013 µM; IC50 [2, 6]: > 10 µM; IC50 (MDAMB231; [7]): > 10 µM; IC50 (recombinant human CK2; Table 1): 0.012 µM

Question: How did the IC50 (K-562; [3]) turn out when `O=C1NC(=S)S/C1=C\c1ccc(-c2ccc(Cl)c(C(=O)O)c2)o1` was run?
Answer: > 10 µM

Question: And the IC50 (MV-4-11; [4])?
Answer: > 10 µM

Question: And the IC50 (recombinant PIM-1; Table 1)?
Answer: 0.226 µM

Question: What about the IC50 [2, 6] of the same compound?
Answer: > 10 µM

Question: What about the IC50 (MDAMB231; [7]) of the same compound?
Answer: > 10 µM

Question: What about the IC50 (recombinant human CK2; Table 1) of the same compound?
Answer: 0.107 µM

Question: What does the source list for `NS(=O)(=O)c1ccc(-c2ccc(/C=C3\SC(=S)NC3=O)o2)cc1`?
Answer: IC50 [1, 5]: > 10 µM; IC50 (recombinant PIM-1; Table 1): 0.015 µM; IC50 (recombinant human CK2; Table 1): 0.009 µM

Question: `O=C1NC(=S)S/C1=C\c1ccc(-c2ccccc2)o1` was tested. Which IC50 (K-562; [3]) did it give?
Answer: > 10 µM

Question: What about the IC50 (MV-4-11; [4]) of the same compound?
Answer: > 10 µM

Question: And the IC50 [1, 5]?
Answer: > 10 µM

Question: What about the IC50 (recombinant PIM-1; Table 1) of the same compound?
Answer: 0.059 µM

Question: And the IC50 [2, 6]?
Answer: > 10 µM

Question: And the IC50 (MDAMB231; [7])?
Answer: > 10 µM

Question: And the IC50 (recombinant human CK2; Table 1)?
Answer: 0.004 µM

Question: How did the IC50 (recombinant PIM-1; Table 3) turn out when `O=C1NC(=O)/C(=C\c2ccc(-c3cccc(C(=O)O)c3)o2)N1` was run?
Answer: > 5 µM

Question: And the IC50 (recombinant human CK2; Table 3)?
Answer: 2.06 µM

Question: What does the source list for `CN1CCN(C(=O)c2ccc(-c3ccc(/C=C4\SC(=S)NC4=O)o3)cc2)CC1`?
Answer: IC50 (K-562; [3]): > 10 µM; IC50 (MV-4-11; [4]): > 10 µM; IC50 [1, 5]: > 30 µM; IC50 (recombinant PIM-1; Table 1): 0.064 µM; IC50 [2, 6]: > 10 µM; IC50 (MDAMB231; [7]): > 10 µM

Question: For `O=C1NC(=S)S/C1=C\c1ccc(-c2ccccc2C(=O)O)o1`, which IC50 (recombinant PIM-1; Table 1) is on record?
Answer: 4.33 µM

Question: And the IC50 (recombinant human CK2; Table 1)?
Answer: 3.79 µM

Question: How did the IC50 (recombinant PIM-1; Table 3) turn out when `O=C1NC(=O)/C(=C\c2ccc(-c3ccc(C(=O)O)cc3)o2)N1` was run?
Answer: 0.805 µM

Question: And the IC50 (recombinant human CK2; Table 3)?
Answer: 0.166 µM

Question: Which results are given for `CC(C)N1CCN(C(=O)c2ccc(-c3ccc(/C=C4\SC(=S)NC4=O)o3)cc2)CC1`?
Answer: IC50 (K-562; [3]): > 10 µM; IC50 (MV-4-11; [4]): > 10 µM; IC50 [1, 5]: > 30 µM; IC50 (recombinant PIM-1; Table 1): 0.067 µM; IC50 [2, 6]: > 10 µM; IC50 (MDAMB231; [7]): > 10 µM

Question: How did the IC50 (recombinant PIM-1; Table 3) turn out when `NS(=O)(=O)c1ccc(-c2ccc(/C=C3\NC(=O)NC3=O)o2)cc1` was run?
Answer: 0.276 µM

Question: What about the IC50 (recombinant human CK2; Table 3) of the same compound?
Answer: 0.458 µM

Question: How did the IC50 (recombinant PIM-1; Table 2) turn out when `O=C1NC(=O)/C(=C/c2ccc(-c3cccc(C(=O)O)c3)o2)S1` was run?
Answer: > 5 µM

Question: What about the IC50 (recombinant human CK2; Table 2) of the same compound?
Answer: 0.117 µM
